Key:
[1] = tested on: lung cancer cells (A549); assay: MTT cytotoxicity assay, A549; assay type: cell-based, human
Experimental: (§1) All of the synthesized compounds were screened for their cytotoxic effect against three different human cancer cells, namely breast cancer cells (MCF-7), lung cancer cells (A549), and colorectal adenocarcinoma cells (Caco2), using the MTT cytotoxic assay. […] Then, 3-[4,5-dimethylthiazol-2-yl]-2,5-diphenyl tetrazolium bromide (MTT) was added.

[2] = tested on: colorectal adenocarcinoma cells (Caco2); assay: MTT cytotoxicity assay, Caco2; assay type: cell-based; settings: Homo sapiens, Caco-2, 48 h
Experimental: as §1

[3] = tested on: breast cancer cells (MCF-7); assay: MTT cytotoxicity assay, MCF-7; assay type: cell-based; settings: Homo sapiens, MCF7, MCF-7 cells, 48 h
Experimental: as §1

[4] = tested on: MCF-7 cells; assay: Cell cycle analysis by DNA flow cytometry; assay type: cell-based, human; settings: MCF-7, 24 h; for increase in the percentage of cells in the G0-G1 phase: compared with the control (53.89%)
Experimental: An encouraging strategy for cancer therapy is targeting the cell cycle, according to the reported method. In this study, compounds 4i and 4f were tested—using a DNA flow cytometry assay—for their effects on the cell cycle of MCF-7 cells (Figure 2). […] Simultaneously, there was a significant reduction in the percentage of the cell population in the G2/M phase—32% and 46% for cells treated with compound 4f or 4i, respectively, compared with controls. The decline in the proportion of cells in the G2/M phase as well as the increase in the cell population in the G0-G1 and S phases indicate a reduction in cell cycle progression in MCF-7 cells.

[5] = tested on: mammary gland epithelial cell line MCF-10a; assay: Cytotoxicity toward normal cells MCF-10a; assay type: cell-based, human; settings: for SI (selectivity index): MCF-10a IC50 relative to MCF-7 IC50
[6] = Cytotoxicity toward normal cells MCF-10a; assay type: cell-based, human; settings: human, MCF-10a mammary gland epithelial cells (normal), MCF-10a normal cell line
[7] = tested on: caspase-3/7 in MCF-7 cells; assay: Caspase-3/7 Green flow cytometry assay; assay type: cell-based, human; settings: untreated controls 0.43%
Experimental: Caspases are essential factors in apoptotic cell death since they play a key role in maintaining homeostasis, and their activation induces apoptosis.
Caspase-3/7 activity was calculated using Caspase-3/7 Green Flow Cytometry Assay Kit Catalog # C10427.

[8] = tested on: MCF-7 cells; assay: Annexin-V/PI apoptosis assay; assay type: cell-based, human; settings: MCF-7, 24 h; for Annexin V/PI quadrant, remaining (necrosis): Figure 3, quadrant not given, assigned by elimination; for average increment at the early phase of apoptosis / average increment in late-stage apoptosis: average for the treated groups; for percentage of Annexin V/PI-stained cells: both early and late phases of apoptosis, untreated 1.76%
Experimental: To assess the apoptotic potential, MCF-7 cells were treated with compound 4i or 4f for 24 h and then assayed for Annexin-V/PI (propidium iodide) binding according to the reported protocol. […] At the early phase of apoptosis, the average increment for the treated groups was around 27%, while it was around 14% in late-stage apoptosis.
Apoptosis was measured using an Annexin V-FITC Apoptosis Detection Kit and analyzed using FACSCalibur flow cytometer.

Structure (SMILES)	melting point	IC50 ([1]; Homo sapiens, A549, 48 h)	IC50 [2]	IC50 [3]	reduction in the percentage of the cell population in the G2/M phase ([4]; compared with controls)	increase in the percentage of cells in the G0-G1 phase [4]	SI (selectivity index) [5]	IC50 [6]	levels of active caspase-3/7 expression [7]	Annexin V/PI quadrant, remaining (necrosis) [8]	average increment at the early phase of apoptosis [8]	average increment in late-stage apoptosis [8]	percentage of Annexin V/PI-stained cells [8]	IC50 ([1]; 48 h)	increase in the percentage of the cell population in the S phase ([4]; compared with control)	IC50 ([5]; MCF-10a normal cell line)
COc1cc(Nc2ncc(F)c(Nc3ccc4[nH]ncc4c3)n2)cc(OC)c1OC [Compound 4c, 5-fluoro-N4-(1H-indazol-5-yl)-N2-(3,4,5-trimethoxyphenyl)pyrimidine-2,4-diamine]	352 to 354 °C	58.8 ± 3.25 µM	67.8 ± 3.36 µM	29.1 ± 1.4 µM	–	–	–	–	–	–	–	–	–	–	–	–
NS(=O)(=O)c1ccc(Nc2nccc(Nc3ccc4[nH]ncc4c3)n2)cc1 [Compound 4g, 4-((4-((1H-indazol-5-yl)amino)pyrimidin-2-yl)amino) benzenesulfonamide]	–	11.2 ± 0.62 µM	6.91 ± 0.34 µM	4.68 ± 0.22 µM	–	–	–	–	–	–	–	–	–	–	–	–
Fc1cnc(Nc2ccc(N3CCOCC3)cc2)nc1Nc1ccc2[nH]ncc2c1 [Compound 4f, 5-fluoro-N4-(1H-indazol-5-yl)-N2-(4-morpholinophenyl) pyrimidine-2,4-diamine]	–	12.8 ± 0.71 µM	22.3 ± 1.11 µM	1.63 ± 0.08 µM	32%	around 7%	14.5	23.7 ± 1.17 µM	19%	3.23%	around 27%	around 14%	about 47%	–	–	–
COc1cc(Nc2nccc(Nc3ccc4[nH]ncc4c3)n2)cc(OC)c1OC [Compound 4i, N4-(1H-indazol-5-yl)-N2-(3,4,5-trimethoxyphenyl) pyrimidine-2,4-diamine]	–	2.31 ± 0.13 µM	4.99 ± 0.25 µM	1.84 ± 0.09 µM	–	around 7%	16.03	29.5 µM	26.5%	5.92%	around 27%	around 14%	about 47%	–	3%	29.5 ± 1.46 µM
NS(=O)(=O)c1cccc(Nc2ncc(F)c(Nc3ccc4[nH]ncc4c3)n2)c1 [Compound 4d, 3-((4-((1H-indazol-5-yl)amino)-5-fluoropyrimidin-2-yl)amino)benzenesulfonamide]	286 to 288 °C	13.5 ± 0.74 µM	9.63 ± 0.48 µM	4.8 ± 0.23 µM	–	–	–	–	–	–	–	–	–	–	–	–

Further lines, with some results ahead:

melting point	Structure (SMILES)	IC50 ([1]; Homo sapiens, A549, 48 h)	IC50 [2]	IC50 [3]	reduction in the percentage of the cell population in the G2/M phase ([4]; compared with controls)	increase in the percentage of cells in the G0-G1 phase [4]	SI (selectivity index) [5]	IC50 [6]	levels of active caspase-3/7 expression [7]	Annexin V/PI quadrant, remaining (necrosis) [8]	average increment at the early phase of apoptosis [8]	average increment in late-stage apoptosis [8]	percentage of Annexin V/PI-stained cells [8]	IC50 ([1]; 48 h)	increase in the percentage of the cell population in the S phase ([4]; compared with control)	IC50 ([5]; MCF-10a normal cell line)
303 to 305 °C	NS(=O)(=O)c1ccc(Nc2ncc(F)c(Nc3ccc4[nH]ncc4c3)n2)cc1 [Compound 4e, 4-((4-((1H-indazol-5-yl)amino)-5-fluoropyrimidin-2-yl)amino)benzenesulfonamide]	46.6 ± 2.57 µM	7.17 ± 0.36 µM	25.1 ± 1.2 µM	–	–	–	–	–	–	–	–	–	–	–	–
343 to 345 °C	O=S(=O)(Nc1ncccn1)c1ccc(Nc2ncc(F)c(Nc3ccc4[nH]ncc4c3)n2)cc1 [Compound 4a, 4-((4-((1H-indazol-5-yl)amino)-5-fluoropyrimidin-2-yl)amino)-N-(pyrimidin-2-yl)benzenesulfonamide]	3.3 µM	10.3 ± 0.51 µM	2.96 ± 0.14 µM	–	–	–	–	–	–	–	–	–	3.2 ± 0.18 µM	–	–
211 to 213 °C	O=S(=O)(Nc1nccs1)c1ccc(Nc2nccc(Nc3ccc4[nH]ncc4c3)n2)cc1 [Compound 4h, 4-((4-((1H-indazol-5-yl)amino)pyrimidin-2-yl)amino)-N-(thiazol-2-yl)benzenesulfonamide]	23.5 ± 1.3 µM	17.3 ± 0.86 µM	21.1 ± 1.01 µM	–	–	–	–	–	–	–	–	–	–	–	–
285 to 287 °C	O=S(=O)(Nc1nccs1)c1ccc(Nc2ncc(F)c(Nc3ccc4[nH]ncc4c3)n2)cc1 [Compound 4b, 4-((4-((1H-indazol-5-yl)amino)-5-fluoropyrimidin-2-yl)amino)-N-(thiazol-2-yl)benzenesulfonamide]	52.9 ± 2.92 µM	31.2 ± 1.55 µM	14.3 ± 0.68 µM	–	–	–	–	–	–	–	–	–	–	–	–
